{
  "source": "patent US12077483B2",
  "about": "“Modified amine lipids” (Intellia Therapeutics, Inc., priority 2018, dated 2024)",
  "key": {"[1]": {"tested_on": "TTR in HUH7 cells", "assay": "In vitro editing in HUH7 cells, LNP with Cas9 mRNA and sgRNA G000502, NGS", "format": "cell-based, human", "settings": "Table 14; 2000 ng RNA per well, cells harvested 6 hours post-transfection, biological duplicate, G000502 target locus", "protocol": "A series of compounds based on Compound 46 that vary by the inclusion of a C4-12 alkyl at the R^3 position of Formula (IA) (as illustrated in FIG. 13A) were tested for in vitro editing. The human hepatocellular carcinoma cell line […] (Japanese Collection of Research Bioresources Cell Bank, Cat. JCRB0403) was cultured in DMEM media supplemented with 10% fetal bovine serum and 1% Penicillin-Streptomycin. Cells were plated at a density of 20,000 cells/well in a 96-well plate 24 hours prior to transfection (˜80% confluent at time of transfection). The LNPs were formulated at a 1:2 w/w ratio of sgRNA and Cas9 mRNA using the cross flow procedure with lipid molar compositions as described in Table 13 at an N/P ratio of 6.0. LNP compositions were analyzed for average particle size, polydispersity (pdi), total RNA content and encapsulation efficiency of RNA as described in Example 115. Analysis of average particle size, polydispersity (PDI), total RNA content and encapsulation efficiency of RNA are shown in Table 13. LNPs were diluted into media, incubated for 5 minutes at 37 C and pipetted onto cells at a dose of 2000 ng RNA per well. Each condition was assayed in biological duplicate. Cells were harvested post-transfection at 6 hours. Genomic DNA was extracted using 50 μL/well BuccalAmp DNA Extraction solution (Epicentre, Cat. QE09050) according to manufacturer's protocol. All DNA samples were subjected to PCR and subsequent NGS analysis for editing at the G000502 target locus, as described above. As shown in Table 14 and FIG. 13B, all compounds tested were efficacious for in vitro editing."}, "[2]": {"tested_on": "rat TTR", "assay": "Serum TTR levels in rats after LNP delivery", "format": "in vivo", "settings": "Table 11, G534, Sprague Dawley female rats i.v."}},
  "data": [
    {"smiles": "CCCCC/C=C\\C/C=C\\CCCCCCCC(=O)OCC(COC(=O)CCCCCCC/C=C\\C/C=C\\CCCCC)OC(=O)CCC(CCCCCC)OC(=O)NCCN1CCCC1", "note": "(racemic) [Compound 50, 2-((4-(((2-(pyrrolidin-1-yl)ethyl)carbamoyl)oxy)decanoyl)oxy)propane-1,3-diyl (9Z,9′Z,12Z,12′Z)-bis(octadeca-9,12-dienoate)]", "values": [
      {"measurement": "Editing", "setting": "[1]", "result": 64.3, "unit": "%"},
      {"measurement": "Serum TTR", "setting": "[2]; dose 0.03 mpk", "result": 581.7, "unit": "µg/mL"},
      {"measurement": "Serum TTR % TSS", "setting": "[2]; dose 0.03 mpk", "result": 69, "unit": "% TSS"},
      {"measurement": "Serum TTR", "setting": "[2]; dose 0.1 mpk", "result": 116.6, "unit": "µg/mL"},
      {"measurement": "Serum TTR % TSS", "setting": "[2]; dose 0.1 mpk", "result": 14, "unit": "% TSS"}
    ]},
    {"smiles": "CCCCC/C=C\\C/C=C\\CCCCCCCC(=O)OCC(COC(=O)CCCCCCC/C=C\\C/C=C\\CCCCC)OC(=O)CCC(CCCCCCCC)OC(=O)NCCN(C)CC", "note": "(stereo not drawn) [Compound 34, 2-((4-(((2-(ethyl(methyl)amino)ethyl)carbamoyl)oxy)dodecanoyl)oxy)propane-1,3-diyl (9Z,9′Z,12Z,12′Z)-bis(octadeca-9,12-dienoate)]", "values": [
      {"measurement": "Editing", "setting": "[1]", "result": 49.0, "unit": "%"},
      {"measurement": "Serum TTR", "setting": "[2]; dose 0.03 mpk", "result": 514.2, "unit": "µg/mL"},
      {"measurement": "Serum TTR % TSS", "setting": "[2]; dose 0.03 mpk", "result": 61, "unit": "% TSS"},
      {"measurement": "Serum TTR", "setting": "[2]; dose 0.1 mpk", "result": 188.9, "unit": "µg/mL"},
      {"measurement": "Serum TTR % TSS", "setting": "[2]; dose 0.1 mpk", "result": 22, "unit": "% TSS"}
    ]},
    {"smiles": "CCCCC/C=C\\C/C=C\\CCCCCCCC(=O)OCC(COC(=O)CCCCCCC/C=C\\C/C=C\\CCCCC)OC(=O)CCC(CCCCCC)OC(=O)OCCCN1CCCC1", "note": "(stereo not drawn) [Compound 45, 2-((4-(((3-(pyrrolidin-1-yl)propoxy)carbonyl)oxy)decanoyl)oxy)propane-1,3-diyl (9Z,9′Z,12Z,12′Z)-bis(octadeca-9,12-dienoate)]", "values": [
      {"measurement": "Serum TTR", "setting": "[2]; dose 0.03 mpk", "result": 910.4, "unit": "µg/mL"},
      {"measurement": "Serum TTR % TSS", "setting": "[2]; dose 0.03 mpk", "result": 110, "unit": "% TSS"},
      {"measurement": "Serum TTR", "setting": "[2]; dose 0.1 mpk", "result": 270.7, "unit": "µg/mL"},
      {"measurement": "Serum TTR % TSS", "setting": "[2]; dose 0.1 mpk", "result": 32, "unit": "% TSS"}
    ]},
    {"smiles": "CCCCC/C=C\\C/C=C\\CCCCCCCC(=O)OCC(COC(=O)CCC(OCCCCCCCC)OCCCCCCCC)COC(=O)OCCCN(CC)CC", "note": "(stereo not drawn) [Compound 49, 3-((4,4-bis(octyloxy)butanoyl)oxy)-2-((((3-(diethylamino)propoxy)carbonyl)oxy)methyl)propyl (9Z,12Z)-octadeca-9,12-dienoate, reference compound]", "values": [
      {"measurement": "Editing", "setting": "[1]", "result": 22.6, "unit": "%"},
      {"measurement": "Serum TTR", "setting": "[2]; dose 0.03 mpk", "result": 790.9, "unit": "µg/mL"},
      {"measurement": "Serum TTR % TSS", "setting": "[2]; dose 0.03 mpk", "result": 94, "unit": "% TSS"},
      {"measurement": "Serum TTR", "setting": "[2]; dose 0.1 mpk", "result": 669.5, "unit": "µg/mL"},
      {"measurement": "Serum TTR % TSS", "setting": "[2]; dose 0.1 mpk", "result": 79, "unit": "% TSS"}
    ]},
    {"smiles": "CCCCC/C=C\\C/C=C\\CCCCCCCC(=O)OCC(COC(=O)CCCCCCC/C=C\\C/C=C\\CCCCC)OC(=O)CCC(CCCCCCCC)OC(=O)NCCN1CCCC1", "note": "(stereo not drawn) [Compound 51, 2-((4-(((2-(pyrrolidin-1-yl)ethyl)carbamoyl)oxy)dodecanoyl)oxy)propane-1,3-diyl (9Z,9′Z,12Z,12′Z)-bis(octadeca-9,12-dienoate)]", "values": [
      {"measurement": "Editing", "setting": "[1]", "result": 69.0, "unit": "%"}
    ]},
    {"smiles": "CCCCC/C=C\\C/C=C\\CCCCCCCC(=O)OCC(COC(=O)CCCCCCC/C=C\\C/C=C\\CCCCC)OC(=O)CCC(CCCCC)OC(=O)NCCN1CCCC1", "note": "(stereo not drawn) [Compound 72, 2-((4-(((2-(pyrrolidin-1l-yl)ethyl)carbamoyl)oxy)nonanoyl)oxy)propane-1,3-diyl (9Z,9′Z,12Z,12′Z)-bis(octadeca-9,12-dienoate)]", "values": [
      {"measurement": "Editing", "setting": "[1]", "result": 65.8, "unit": "%"}
    ]}
  ]
}
